Assay [1] relates to Aphis craccivora. Briefly: Insecticidal activity against Aphis craccivora (cowpea aphid) in tender shoots of soybean assessed as mortality measured after 1 days. The class given is functional. As to conditions: 24 h.
Assay [2] relates to Aphis craccivora. Put plainly: Insecticidal activity against Aphis craccivora (cowpea aphid) in tender shoots of soybean assessed as mortality at 500 mg/L measured after 1 days (reference value: 4.3%). The class given is functional. As to conditions: 24 h.

The structures appear in SMILES notation.

In the case of `N#CC1=C(N)N2CCN(Cc3ccc(Cl)nc3)C2=C([N+](=O)[O-])C1c1ccc(C#N)cc1` (stereo unspecified), the 50% lethal concentration (LC50) with Aphis craccivora [1] came out at 175 µM. For the same compound, the mortality at 500 µg/mL in the assay on Aphis craccivora [2] came to 93.7%.

Regarding `N#CC1=C(N)N2CCN(Cc3ccc(Cl)nc3)C2=C([N+](=O)[O-])C1c1ccc(Cl)cc1Cl` (stereo unspecified), the LC50 in the assay on Aphis craccivora [1] worked out at 133 µM. In addition, in the assay with Aphis craccivora [2], the mortality at 500 µg/mL was 93.4%.

Take `Cc1ccc(F)cc1C1C(C#N)=C(N)N2CCN(Cc3ccc(Cl)nc3)C2=C1[N+](=O)[O-]` (stereo unspecified): in the assay on Aphis craccivora [1], the LC50 is 96.1 µM. The mortality at 500 µg/mL in the assay with Aphis craccivora [2] was 100%.

As for `N#CC1=C(N)N2CCN(Cc3ccc(Cl)nc3)C2=C([N+](=O)[O-])C1c1cccc(Br)c1` (stereo unspecified), the LC50 in the assay with Aphis craccivora [1] was determined as 197 µM. Also, in the assay with Aphis craccivora [2], the mortality at 500 µg/mL was determined as 91.8%.

With `O=[N+]([O-])/N=C1\NCCN1Cc1ccc(Cl)nc1` [IMIDACLOPRID], the mortality at 500 µg/mL in the assay on Aphis craccivora [2] stood at 100%.

In the case of `N#CC1=C(N)N2CCN(Cc3ccc(Cl)nc3)C2=C([N+](=O)[O-])C1c1ccc(Br)cc1Cl` (stereo unspecified), in the assay on Aphis craccivora [2], the mortality at 500 µg/mL was 85%.

As for `COc1ccc(C2C(C#N)=C(N)N3CCN(Cc4ccc(Cl)nc4)C3=C2[N+](=O)[O-])cc1` (stereo unspecified), the LC50 in the assay on Aphis craccivora [1] was 9.75 µM. The mortality at 500 µg/mL in the assay on Aphis craccivora [2] was determined as 100%.

In the case of `N#CC1=C(N)N2CCN(Cc3ccc(Cl)nc3)C2=C([N+](=O)[O-])C1c1ccccc1` (stereo unspecified), the mortality at 500 µg/mL with Aphis craccivora [2] turned out to be 83.1%.

For the compound `N#CC1=C(N)N2CCN(Cc3ccc(Cl)nc3)C2=C([N+](=O)[O-])C1c1ccc([N+](=O)[O-])cc1` (stereo unspecified), in the assay on Aphis craccivora [2], the mortality at 500 µg/mL was 77%.

For the compound `N#CC1=C(N)N2CCN(Cc3ccc(Cl)nc3)C2=C([N+](=O)[O-])C1c1ccc(OC(F)(F)F)cc1` (stereo unspecified), in the assay on Aphis craccivora [1], the 50% lethal concentration (LC50) was found to be 98 µM. The mortality at 500 µg/mL with Aphis craccivora [2] was determined as 100%.

Regarding `Cc1c(F)cccc1C1C(C#N)=C(N)N2CCN(Cc3ccc(Cl)nc3)C2=C1[N+](=O)[O-]` (stereo unspecified), in the assay with Aphis craccivora [1], the LC50 stood at 3.45 µM. The mortality at 500 µg/mL in the assay on Aphis craccivora [2] was determined as 100%.

`Cc1cc(C2C(C#N)=C(N)N3CCN(Cc4ccc(Cl)nc4)C3=C2[N+](=O)[O-])c(Br)cc1F` (stereo unspecified): the mortality at 500 µg/mL in the assay on Aphis craccivora [2] was found to be 75.9%.

On to `Cc1ccc(C2C(C#N)=C(N)N3CCN(Cc4ccc(Cl)nc4)C3=C2[N+](=O)[O-])c(F)c1` (stereo unspecified), for which, in the assay with Aphis craccivora [2], the mortality at 500 µg/mL was 72.9%.

With `N#CC1=C(N)N2CCN(Cc3ccc(Cl)nc3)C2=C([N+](=O)[O-])C1c1cccc(C#N)c1` (stereo unspecified), the mortality at 500 µg/mL with Aphis craccivora [2] turned out to be 80%.

As to `N#CC1=C(N)N2CCN(Cc3ccc(Cl)nc3)C2=C([N+](=O)[O-])C1c1ccc(Cl)cc1C(F)(F)F` (stereo unspecified), the median lethal concentration (LC50) with Aphis craccivora [1] amounted to 61.6 µM. Further, the mortality at 500 µg/mL in the assay on Aphis craccivora [2] worked out at 100%.

As for `N#CC1=C(N)N2CCN(Cc3ccc(Cl)nc3)C2=C([N+](=O)[O-])C1c1cccc([N+](=O)[O-])c1` (stereo unspecified), the LC50 with Aphis craccivora [1] was found to be 79 µM. Further, in the assay with Aphis craccivora [2], the mortality at 500 µg/mL is 91.9%.

On to `N#CC1=C(N)N2CCN(Cc3ccc(Cl)nc3)C2=C([N+](=O)[O-])C1c1ccc(Cl)cc1F` (stereo unspecified), for which, in the assay with Aphis craccivora [2], the mortality at 500 µg/mL was found to be 88%.

One may read the LC50 as the concentration lethal to half of the exposed cells or organisms. What is called mortality is the share of the test organisms that died.

These data come from ChEMBL document CHEMBL3046612, “Design, multicomponent synthesis, and bioactivities of novel neonicotinoid analogues with 1,4-dihydropyridine scaffold” (2010).
